The values below come from patent publication US20220235011A1, “PHTHALAZINONE COMPOUNDS AND USE THEREOF” (ST PHARM CO., LTD., priority 2019, published 2022).

The target in the assay is T1, Sirt6 (Homo sapiens, UniProt Q8N6T7).
T1 construct: purchased CycLex CY-1156V2
The experiment in a line: Measurement of Sirt6 Activity (CycLex Sirt6 Deacetylase Fluorometric Assay Kit). In kind it is biochemical. The note with it: compound at 10 μM, fluorescence relative to the group without compound treatment (positive control group). As to the method:
LC-MS (ESI, m/z)=430.1 (M+H^+) Experimental Example 1: Measurement of Sirt6 Activity Compounds having Sirt6 activity were selected using a CycLex Sirt6 Deacetylase Fluorometric Assay Kit (cat. CY-1156V2) manufactured by CycLex.
When a fluorescent-attached acetylated lysine substrate is treated with Sirt6 enzyme, Sirt6 deacetylates the acetylated lysine of the substrate and lysylendopeptidase cleaves the C-terminal peptide bond connected to the lysine, by which fluorescence is emitted. The activity of a compound is calculated by observing the intensity of fluorescence when the compound is treated along with Sirt6 enzyme. When treating the compound, the compound aids in the activity of Sirt6 enzyme, so as to result in stronger fluorescence. Therefore, by calculating the ratio of the stronger fluorescence relative to the fluorescence emitted from the group without compound treatment (i.e., positive control group), relative activity can be calculated.
Activity evaluation was performed according to the following procedure.
The compound whose activity is to be evaluated was prepared by diluting in phosphate-buffered saline (PBS) to 10 times of the desired concentration (e.g., when measuring Sirt6 assay activity at 10 μM, the compound is prepared at a concentration of 100 μM in PBS). 1 μL of a 1 Ox Sirt6 assay buffer, 0.8 μL of 50× fluoro-substrate peptide, 1 μL of nicotinamide adenine dinucleotide (NAD), 1 μL of a developer and 4.2 μL of H2O were mixed to prepare mixtures equal to the number of samples, and 8 μL was dispensed into each Black 384 well. An additional 1 μL of PBS was added to each of a “no enzyme group” and a positive control group, and 1 μL of the compound diluted in PBS was added to an activity evaluation group. Recombinant Sirt6 was 1:8 diluted in a 1×Sirt6 assay buffer, and 1 μL thereof was added to each of the positive control group and the activity evaluation group. 1 μL of the 1×Sirt6 assay buffer was added to the “no enzyme group.” After reacting at room temperature for one hour, results were measured with a fluorescence spectrometer (excitation: 490±10 nm, emission: 530±10 nm) to confirm the presence or absence of Sirt6 activity and measure the intensity of the activity.

T1 sequence (Q8N6T7 whole entry): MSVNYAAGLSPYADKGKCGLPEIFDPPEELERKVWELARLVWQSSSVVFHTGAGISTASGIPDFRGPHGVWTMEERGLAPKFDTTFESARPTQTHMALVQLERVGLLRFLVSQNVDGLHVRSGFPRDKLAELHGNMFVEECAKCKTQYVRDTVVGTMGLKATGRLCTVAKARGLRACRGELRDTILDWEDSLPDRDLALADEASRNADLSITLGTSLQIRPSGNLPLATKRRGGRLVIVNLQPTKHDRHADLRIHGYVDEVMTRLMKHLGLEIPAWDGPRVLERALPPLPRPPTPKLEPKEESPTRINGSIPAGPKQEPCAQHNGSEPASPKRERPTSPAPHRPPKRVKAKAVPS

Take `COC(=O)C1(C2CCCN(c3nn(-c4ccc(F)cc4F)c(=O)c4ccccc34)C2)CC1` (stereo not shown) [Example 211, Methyl 1-(1-(3-(2,4-difluorophenyl)-4-oxo-3,4-dihydrophthalazin-1-yl)piperidin-3-yl)cyclopropan-1-carboxylate]: the “Sirt6 Activity (% activity, 10 μM)” value was found to be 170.00 % activity. As to `CN(C)S(=O)(=O)c1cccc(-c2nn(-c3c(F)cccc3F)c(=O)c3ccccc23)c1` [Example 109, 3-(3-(2,6-Difluorophenyl)-4-oxo-3,4-dihydrophthalazin-1-yl)-N,N-dimethylbenzenesulfonamide], the “Sirt6 Activity (% activity, 10 μM)” value is given as 188 % activity. As to `CCS(=O)(=O)N[C@@H]1CCCCN(c2nn(-c3ccc(F)cc3F)c(=O)c3ccccc23)C1` [Example 187, (R)—N-(1-(3-(2,4-Difluorophenyl)-4-oxo-3,4-dihydrophthalazin-1-yl)azepan-3-yl)ethanesulfonamide], the “Sirt6 Activity (% activity, 10 μM)” value was determined as 303.80 % activity. `CC(C)/[N+]([O-])=C/c1ccc(-c2nn(-c3ccc(F)cc3)c(=O)c3ccccc23)o1` [Example 48, (Z)-1-(5-(3-(4-Fluorophenyl)-4-oxo-3,4-dihydrophthalazin-1-yl)furan-2-yl)-N-isopropylmethanimine Oxide]: the “Sirt6 Activity (% activity, 10 μM)” value amounted to 107 % activity. For `CC(C)(C(=O)NC1CC1)c1cccc(-c2nn(-c3ccc(F)cc3F)c(=O)c3ccccc23)c1` [Example 178, N-Cyclopropyl-2-(3-(3-(2,4-difluorophenyl)-4-oxo-3,4-dihydrophthalazin-1-yl)phenyl)-2-methyl Propanamide], the “Sirt6 Activity (% activity, 10 μM)” value was 331.00 % activity. Same read-out and setting: to `CNS(=O)(=O)c1cccc(-c2nn(-c3ccccc3F)c(=O)c3ccccc23)c1` [Example 99, 3-(3-(2-Fluorophenyl)-4-oxo-3,4-dihydrophthalazin-1-yl)-N-methylbenzenesulfonamide] belongs 259 % activity; to `CC(C)(N)c1cccc(-c2nn(-c3ccc(F)cc3F)c(=O)c3ccccc23)c1.Cl` [Example 200, 4-(3-(2-Aminopropan-2-yl)phenyl)-2-(2,4-difluorophenyl)phthalazin-1(2H)-one-hydrochloride], 255.33 % activity. For `CNS(=O)(=O)c1cccc(-c2nn(-c3ccc(F)cc3)c(=O)c3ccccc23)c1` [Example 86, 3-(3-(4-Fluorophenyl)-4-oxo-3,4-dihydrophthalazin-1-yl)-N-methylbenzenesulfonamide], the “Sirt6 Activity (% activity, 10 μM)” value is on record as 196 % activity.

On to `CC(C)(C(=O)N1CCCC1)c1cccc(-c2nn(-c3ccc(F)cc3F)c(=O)c3ccccc23)c1` [Example 177, 2-(2,4-Difluorophenyl)-4-(3-(2-methyl-1-oxo-1-(pyrrolidin-1-yl)propan-2-yl)phenyl)phthalazin-1(2H)-one], for which the “Sirt6 Activity (% activity, 10 μM)” value is 241.6 % activity. Still for that read-out and setting: the same measure for `CC(C)(C)/[N+]([O-])=C/c1cccc(-c2nn(-c3ccc(F)cc3)c(=O)c3ccccc23)c1` [Example 43, (Z)—N-tert-Butyl-1-(3-(3-(4-fluorophenyl)-4-oxo-3,4-dihydrophthalazin-1-yl)phenyl)methanimine Oxide]: 205 % activity. Same read-out and setting: the same measure for `CC(C)/[N+]([O-])=C/c1cccc(-c2nn(-c3cc(F)cc(F)c3)c(=O)c3ccccc23)c1` [Example 31, (Z)-1-(3-(3-(3,5-Difluorophenyl)-4-oxo-3,4-dihydrophthalazin-1-yl)phenyl)-N-isopropyl Methanimine Oxide]: 171 % activity. As to `CC(C)(C)/[N+]([O-])=C/c1cccc(-c2nn(-c3ccc(F)c(Cl)c3)c(=O)c3ccccc23)c1` [Example 34, (Z)—N-tert-Butyl-1-(3-(3-(3-chloro-4-fluorophenyl)-4-oxo-3,4-dihydrophthalazin-1-yl)phenyl) Methanimine Oxide], the “Sirt6 Activity (% activity, 10 μM)” value was found to be 176 % activity. As to `CCS(=O)(=O)NC1CCN(c2nn(-c3ccc(F)cc3)c(=O)c3ccccc23)C1` (stereo not shown) [Example 137, N-(1-(3-(4-Fluorophenyl)-4-oxo-3,4-dihydrophthalazin-1-yl)pyrrolidin-3-yl)ethanesulfonamide], the “Sirt6 Activity (% activity, 10 μM)” value was found to be 112.58 % activity. `Cl.N[C@@H]1CCCCN(c2nn(-c3ccc(Cl)cc3F)c(=O)c3ccccc23)C1` [Example 202, (R)-4-(3-Aminoazepan-1-yl)-2-(4-chloro-2-fluorophenyl)phthalazin-1-(2H)-one-hydrochloride]: the “Sirt6 Activity (% activity, 10 μM)” value is 261.73 % activity.

`CC(C)(C(=O)O)c1cccc(-c2nn(-c3ccc(C4CC4)cc3)c(=O)c3ccccc23)c1` [Example 206, 2-(3-(3-(4-Cyclopropylphenyl)-4-oxo-3,4-dihydrophthalazin-1-yl)phenyl)-2-methylpropanoic Acid]: the “Sirt6 Activity (% activity, 10 μM)” value was found to be 182.70 % activity. In the case of `CCS(=O)(=O)N[C@H]1CCCN(c2nn(C3CCCCC3)c(=O)c3ccccc23)C1` [Example 147, (S)—N-(1-(3-Cyclohexyl-4-oxo-3,4-dihydrophthalazin-1-yl)piperidin-3-yl)ethanesulfonamide], the “Sirt6 Activity (% activity, 10 μM)” value is 127.7 % activity. As to `CCNS(=O)(=O)c1cccc(-c2nn(-c3ccc(F)cc3)c(=O)c3ccccc23)c1` [Example 87, N-Ethyl-3-(3-(4-fluorophenyl)-4-oxo-3,4-dihydrophthalazin-1-yl)benzenesulfonamide], the “Sirt6 Activity (% activity, 10 μM)” value is listed as 226 % activity. As to `CS(=O)(=O)c1cccc(-c2nn(-c3c(F)cccc3F)c(=O)c3ccccc23)c1` [Example 105, 2-(2,6-Difluorophenyl)-4-(3-(methylsulfonyl)phenyl)phthalazin-1 (2H)-one], the “Sirt6 Activity (% activity, 10 μM)” value turned out to be 226 % activity.

Turning to `CC(C)(C(=O)O)C1CCCN(c2nn(-c3ccc(F)cc3F)c(=O)c3ccccc23)C1` (stereo not shown) [Example 205, 2-(1-(3-(2,4-Difluorophenyl)-4-oxo-3,4-dihydrophthalazin-1-yl)piperidin-3-yl)-2-methylpropanoic Acid], the “Sirt6 Activity (% activity, 10 μM)” value (10 µM) is 105.70 % activity. In the case of `CC(C)/[N+]([O-])=C/c1cccc(-c2nn(-c3ccc(F)cc3F)c(=O)c3ccccc23)c1` [Example 22, (Z)-1-(3-(3-(2,4-Difluorophenyl)-4-oxo-3,4-dihydrophthalazin-1-yl)phenyl)-N-isopropyl Methanimine Oxide], the “Sirt6 Activity (% activity, 10 μM)” value stood at 201 % activity. The same measure, in the same setting: to `CCCS(=O)(=O)Nc1cccc(-c2nn(-c3ccc(F)cc3)c(=O)c3ccccc23)c1` [Example 68, N-(3-(3-(4-Fluorophenyl)-4-oxo-3,4-dihydrophthalazin-1-yl)phenyl)propan-1-sulfonamide] belongs 160 % activity. The same measure, in the same setting: the same measure for `CC(C)(C)/[N+]([O-])=C/c1cccc(-c2nn(-c3c(F)cccc3F)c(=O)c3ccccc23)c1` [Example 104, (Z)—N-tert-Butyl-1-(3-(3-(2,6-difluorophenyl)-4-oxo-3,4-dihydrophthalazin-1-yl)phenyl)methanimine Oxide]: 284 % activity; for `CS(=O)(=O)c1cccc(-c2nn(C3CCCCC3)c(=O)c3ccccc23)c1` [Example 154, 2-Cyclohexyl-4-(3-(methylsulfonyl)phenyl)phthalazin-1(2H)-one]: 263.7 % activity; for `CC(C)/[N+]([O-])=C/c1cccc(-c2nn(-c3ccccc3)c(=O)c3ccccc23)c1` [Example 14, (Z)—N-Isopropyl-1-(3-(4-oxo-3-phenyl-3,4-dihydrophthalazin-1-yl)phenyl)methanimine Oxide]: 121 % activity. In the case of `Cl.N[C@@H]1CCCCN(c2nn(-c3ccc(Cl)cc3)c(=O)c3ccccc23)C1` [Example 185, (R)-4-(3-Aminoazepan-1-yl)-2-(4-chlorophenyl)phthalazin-1(2H)-one-hydrochloride], the “Sirt6 Activity (% activity, 10 μM)” value amounted to 273.80 % activity. As to `CNS(=O)(=O)c1cccc(-c2nn(-c3ccccc3)c(=O)c3cc(F)ccc23)c1` [Example 113, 3-(6-Fluoro-4-oxo-3-phenyl-3,4-dihydrophthalazin-1-yl)-N-methylbenzenesulfonamide], the “Sirt6 Activity (% activity, 10 μM)” value stood at 116 % activity. Regarding `CC(C)/[N+]([O-])=C/c1ccccc1-c1nn(-c2ccc(F)cc2)c(=O)c2ccccc12` [Example 41, (Z)-1-(2-(3-(4-Fluorophenyl)-4-oxo-3,4-dihydrophthalazin-1-yl)phenyl)-N-isopropyl Methanimine Oxide], the “Sirt6 Activity (% activity, 10 μM)” value came to 129 % activity.

In the case of `Cl.NC1CCCCN(c2nn(C3CCC3)c(=O)c3ccccc23)C1` (stereo not shown) [Example 172, 4-(3-Aminoazepan-1-yl)-2-cyclobutyl phthalazin-1(2H)-one-hydrochloride], the “Sirt6 Activity (% activity, 10 μM)” value was 99.5 % activity.
